Assay results reported in ChEMBL document CHEMBL5247582 (Eur J Med Chem, 2022).
The source made the active and inactive calls. No cut-off for these calls is given here.

How the values were obtained:
[1] = biological target: T1, Solute carrier family 22 member 12 (Homo sapiens, UniProt Q96S37); assay: Inhibition of human URAT1 mediated 14C-uric acid uptake expressed in HEK293 cells using 14C-uric acid as substrate incubated for 30 mins by liquid scintillation counting analysis; assay type: cell-based
T1 sequence (Q96S37 whole entry): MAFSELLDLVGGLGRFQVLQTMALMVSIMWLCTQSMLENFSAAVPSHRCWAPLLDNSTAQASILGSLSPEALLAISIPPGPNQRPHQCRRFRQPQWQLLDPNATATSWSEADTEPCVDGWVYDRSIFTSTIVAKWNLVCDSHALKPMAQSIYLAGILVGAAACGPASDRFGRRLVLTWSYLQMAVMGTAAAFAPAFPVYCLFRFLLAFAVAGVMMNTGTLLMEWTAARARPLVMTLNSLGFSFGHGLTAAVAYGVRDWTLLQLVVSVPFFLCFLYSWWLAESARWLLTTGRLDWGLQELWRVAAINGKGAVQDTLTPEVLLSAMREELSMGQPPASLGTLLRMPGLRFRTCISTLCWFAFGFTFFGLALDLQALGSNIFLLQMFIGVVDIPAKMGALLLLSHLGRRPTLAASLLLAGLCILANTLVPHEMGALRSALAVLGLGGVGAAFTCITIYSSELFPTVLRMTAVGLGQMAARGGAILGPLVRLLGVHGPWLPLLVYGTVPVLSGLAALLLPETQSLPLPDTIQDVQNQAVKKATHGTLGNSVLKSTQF

Mus musculus [2] = assay: Anti-hyperuricemic activity against hypoxanthine/potassium oxonate-induced Kunming mouse model assessed as reduction in serum uric acid level at 2 mg/kg, sc measured after 4 hrs (reference value: 1010.00 +/- 51.16 uM); assay type: functional
Mus musculus [3] = assay: Anti-hyperuricemic activity against hypoxanthine/potassium oxonate-induced Kunming mouse model assessed as decrease in serum uric acid ratio at 2 mg/kg, sc measured after 4 hrs; assay type: functional; set-up: scale not given: the % may be the effect or the level left
[4] = biological target: T2, Solute carrier family 2, facilitated glucose transporter member 9 (Homo sapiens) (UniProt Q9NRM0); assay: Inhibition of GLUT9 (unknown origin) transfected in HEK293 cells assessed as inhibition of uric acid-induced current at 100 uM by whole cell patch clamp analysis; assay type: cell-based
T2 sequence (whole entry): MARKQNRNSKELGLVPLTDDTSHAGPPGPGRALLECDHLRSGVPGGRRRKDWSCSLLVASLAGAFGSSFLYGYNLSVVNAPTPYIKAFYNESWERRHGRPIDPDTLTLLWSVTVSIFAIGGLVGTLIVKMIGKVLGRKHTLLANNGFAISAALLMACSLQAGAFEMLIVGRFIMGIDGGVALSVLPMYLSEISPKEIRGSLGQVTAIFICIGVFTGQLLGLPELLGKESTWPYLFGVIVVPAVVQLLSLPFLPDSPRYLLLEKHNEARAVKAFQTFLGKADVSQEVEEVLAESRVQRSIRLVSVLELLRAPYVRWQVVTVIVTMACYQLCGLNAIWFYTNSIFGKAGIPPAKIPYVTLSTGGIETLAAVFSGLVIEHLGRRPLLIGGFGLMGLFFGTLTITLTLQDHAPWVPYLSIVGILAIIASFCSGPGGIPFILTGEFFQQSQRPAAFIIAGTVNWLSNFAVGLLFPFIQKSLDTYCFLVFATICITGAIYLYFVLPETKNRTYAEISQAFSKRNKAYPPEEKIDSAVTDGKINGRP

[5] = Acute toxicity in Kunming male mouse assessed as survival rate at 1000 mg/kg, IG; assay type: organism-based; conditions: in vivo, po, read-out: Activity
[6] = Acute toxicity in Kunming female mouse assessed as survival rate at 1000 mg/kg, IG; assay type: organism-based; conditions: in vivo, po, read-out: Activity
[7] = biological target: T3, Solute carrier family 2, facilitated glucose transporter member 9 (Homo sapiens, UniProt Q9NRM0); assay: Inhibition of GLUT9 (unknown origin) transfected in HEK293 cells assessed as inhibition of uric acid-induced current by whole cell patch clamp analysis; assay type: cell-based
T3 sequence (Q9NRM0 whole entry): T2 sequence (whole entry)

[8] = Acute toxicity in Kunming female mouse assessed as lethargy at 1000 mg/kg, IG; assay type: organism-based; conditions: in vivo, po
[9] = Acute toxicity in Kunming female mouse assessed as clonic convulsion at 1000 mg/kg, IG; assay type: organism-based; conditions: in vivo, po
[10] = Acute toxicity in Kunming female mouse assessed as anorexia at 1000 mg/kg, IG; assay type: organism-based; conditions: in vivo, po
[11] = Acute toxicity in Kunming female mouse assessed as ruffled fur at 1000 mg/kg, IG; assay type: organism-based; conditions: in vivo, po
[12] = Acute toxicity in Kunming female mouse assessed as effect on body weight changes at 1000 mg/kg, IG measured for 7 days; assay type: organism-based; conditions: in vivo, po, 168 h, time 7 day

CC(C)S(=O)(=O)NC(=O)CSc1nc2sccc2c(=O)n1-c1ccc(C2CC2)c2ccccc12
IC50 [1]: 9.25 µM

O=C(CSc1nc2sccc2c(=O)n1-c1ccc(C2CC2)c2ccccc12)NS(=O)(=O)c1ccc(C(F)(F)F)cc1
IC50 [1]: 16.2 µM

O=C(CSc1nc2sccc2c(=O)n1-c1ccc(C2CC2)c2ccccc12)NS(=O)(=O)c1cc(F)cc(F)c1
IC50 [1]: 7.68 µM | Activity (Mus musculus [2]): 512.33 µM | Activity (Mus musculus [3]): 54.17%

O=C(O)CSc1nnc(Br)n1-c1ccc(C2CC2)c2ccccc12
Activity (Mus musculus [2]): 763 µM | Activity (Mus musculus [3]): 26% | inhibition [4]: inactive | survival [5]: 40% | survival [6]: 20%

O=C(CSc1nc2sccc2c(=O)n1-c1ccc(C2CC2)c2ccccc12)NS(=O)(=O)C1CC1
IC50 [1]: 11.6 µM

O=C(CSc1nc2sccc2c(=O)n1-c1ccc(C2CC2)c2ccccc12)NS(=O)(=O)c1ccc(Cl)cc1
IC50 [1]: 11.9 µM

O=C(CSc1nc2sccc2c(=O)n1-c1ccc(C2CC2)c2ccccc12)NS(=O)(=O)c1ccc(Cl)s1
IC50 [1]: 9.7 µM

CC(C)(C)c1ccc(S(=O)(=O)NC(=O)CSc2nc3sccc3c(=O)n2-c2ccc(C3CC3)c3ccccc23)cc1
IC50 [1]: 13.5 µM

O=C(CSc1nc2sccc2c(=O)n1-c1ccc(C2CC2)c2ccccc12)NS(=O)(=O)c1ccc(F)cc1F
IC50 [1]: 9.92 µM

O=C(O)CSc1ccncc1C(=O)N1CCc2ccccc2C1
Activity (Mus musculus [2]): 682.25 µM | Activity (Mus musculus [3]): 28.73%

O=C(O)CSc1nc2sccc2c(=O)n1-c1ccc(C2CC2)c2ccccc12
IC50 ([1]; hek293): 3.27 µM

O=C(CSc1nc2sccc2c(=O)n1-c1ccc(C2CC2)c2ccccc12)NS(=O)(=O)c1ccccc1
IC50 [1]: 11.4 µM

O=C(CSc1nc2sccc2c(=O)n1-c1ccc(C2CC2)c2ccccc12)NS(=O)(=O)c1ccccc1[N+](=O)[O-]
IC50 [1]: 9.79 µM

O=C(c1cnccc1SC1(C(=O)O)CCC1)N1CCc2ccccc2C1
Activity (Mus musculus [2]): 621.33 µM | Activity (Mus musculus [3]): 36%

CS(=O)(=O)NC(=O)CSc1nc2sccc2c(=O)n1-c1ccc(C2CC2)c2ccccc12
IC50 [1]: 7.31 µM | Activity (Mus musculus [2]): 533.67 µM | Activity (Mus musculus [3]): 51.85%

CCS(=O)(=O)NC(=O)CSc1nc2sccc2c(=O)n1-c1ccc(C2CC2)c2ccccc12
IC50 [1]: 7.9 µM | Activity (Mus musculus [2]): 675.67 µM | Activity (Mus musculus [3]): 36.39%

O=C(CSc1nc2sccc2c(=O)n1-c1ccc(C2CC2)c2ccccc12)NS(=O)(=O)c1ccc(O)cc1
IC50 [1]: 20.3 µM

CC(C)(C)S(=O)(=O)NC(=O)CSc1nc2sccc2c(=O)n1-c1ccc(C2CC2)c2ccccc12
IC50 [1]: 11.1 µM

CC(Sc1ccncc1C(=O)N1CCc2ccccc2C1)C(=O)O (configuration not stated)
Activity (Mus musculus [2]): 479.67 µM | Activity (Mus musculus [3]): 52.9%

CC(Sc1ccncc1C(=O)N1CCOc2ccccc21)C(=O)O (configuration not stated)
Activity (Mus musculus [2]): 580 µM | Activity (Mus musculus [3]): 40.93%

O=C(CSc1nc2sccc2c(=O)n1-c1ccc(C2CC2)c2ccccc12)NS(=O)(=O)c1ccc([N+](=O)[O-])cc1
IC50 [1]: 9.72 µM

O=C(O)CCSc1ccncc1C(=O)N1CCOc2ccccc21
Activity (Mus musculus [2]): 719.33 µM | Activity (Mus musculus [3]): 24.3%

O=C(CSc1nc2sccc2c(=O)n1-c1ccc(C2CC2)c2ccccc12)NS(=O)(=O)c1cccc([N+](=O)[O-])c1
IC50 [1]: 11.5 µM

O=C(CSc1nc2sccc2c(=O)n1-c1ccc(C2CC2)c2ccccc12)NS(=O)(=O)c1ccc(F)cc1
IC50 [1]: 11.4 µM

O=C(CSc1nc2sccc2c(=O)n1-c1ccc(C2CC2)c2ccccc12)NS(=O)(=O)c1ccc(Br)cc1
IC50 [1]: 7.56 µM | Activity (Mus musculus [2]): 336.67 µM | Activity (Mus musculus [3]): 73.29% | IC50 [7]: 56 µM | survival [5]: 100% | survival [6]: 100% | Activity [8]: Non-Toxic | Activity [9]: Non-Toxic | Activity [10]: Non-Toxic | Activity [11]: Non-Toxic | Activity [12]: Non-Toxic

O=C(O)CSc1ccncc1C(=O)N1CCOc2ccccc21
Activity (Mus musculus [2]): 802.33 µM | Activity (Mus musculus [3]): 14.4%
